Measured values reported in patent EP0075104A2, “Cephalosporin derivatives, process for their preparation, pharmaceutical compositions containing them and intermediates” (F. HOFFMANN-LA ROCHE & CO. Aktiengesellschaft, priority 1981, dated 1983).

What was measured:
Serratia marcescens = assay: Oral curative dose (CD50) in infected mice, Serratia marcescens; format: in vivo; settings: Maus, p.o., Erreger Serratia marcescens, dose at which 50% of the tested mice survive
Description: (§1) Die orale antimikrobielle Wirksamkeit der erwähnten Produkte kann anhand von in-vivo-Versuchen an der Maus nachgewiesen werden. Im nachstehenden bedeutet die kurative Dosis (CD50, p.o., mg/kg) diejenige perorale Dosis, bei der 50% der getesteten Mäuse überleben.
(§2) Ergebnis (CD50, p.o. mg/kg)

Streptococcus pyogenes = assay: Oral curative dose (CD50) in infected mice, Streptococcus pyogenes; format: in vivo; settings: Maus, p.o., Erreger Streptococcus pyogenes, dose at which 50% of the tested mice survive
Description: as §1, §2

Escherichia coli = assay: Oral curative dose (CD50) in infected mice, Escherichia coli; format: in vivo; settings: Maus, p.o., Erreger Escherichia coli, dose at which 50% of the tested mice survive
Description: as §1, §2

Klebsiella pneumoniae = assay: Oral curative dose (CD50) in infected mice, Klebsiella pneumoniae; format: in vivo; settings: Maus, p.o., Erreger Klebsiella pneumoniae, dose at which 50% of the tested mice survive
Description: as §1, §2

in vivo = settings: mouse, po

Compound `CO/N=C(\C(=O)N[C@@H]1C(=O)N2C(C(=O)OCOC(=O)C(C)(C)C)=C(CSc3nc(C(=O)OC)n(C(C(=O)OCOC(=O)C(C)(C)C)c4ccccc4)n3)CS[C@H]12)c1csc(N)n1` (stereo partly drawn) [Produkt B, Methylen-(6R,7R)-7-C(Z)-2-(2-Amino-4-thiazolyl)-2-(methoxyimino)-acetamido]-3-[[[5-(methoxycarbonyl)-1-[(DL)-α-[[(pivaloyloxy)-methoxy]carbonyl]benzyl]-1H-1,2,4-triazol-3-yl]thio]methyl]-8-oxo-5-thia-1-azabicyclo-[4.2.0]oct-2-en-2-carboxylat-pivalat] has an ED50 (Serratia marcescens) greater than 25 mg/kg, an ED50 (Streptococcus pyogenes) greater than 6 mg/kg and an ED50 (Escherichia coli) of 5.5 mg/kg. For the same compound, the ED50 (Klebsiella pneumoniae) was greater than 25 mg/kg.
In the case of `C=CCn1c(SCC2=C(C(=O)OCOC(=O)C(C)(C)C)N3C(=O)[C@@H](NC(=O)/C(=N\OC)c4csc(N)n4)[C@H]3SC2)nnc1C(=O)OC` [Produkt D], the ED50 (Serratia marcescens) was 3.6 mg/kg, the ED50 (Streptococcus pyogenes) was 1.3 mg/kg and the LD50 at 24 h (in vivo) was greater than 5000 mg/kg. It also gave an ED50 (Escherichia coli) of 0.11 mg/kg and an ED50 (Klebsiella pneumoniae) greater than 12 mg/kg.
In the case of `CO/N=C(\C(=O)N[C@@H]1C(=O)N2C(C(=O)OCOC(=O)C(C)(C)C)=C(CSc3nc(C(=O)OC)n(-c4ccccc4)n3)CS[C@H]12)c1csc(N)n1` [Produkt C, Methylen-(6R,7R)-7-[(Z)-2-(2-Amino-4-thiazolyl)-2-(methoxyimino)-acetamido]3-[[[5-(methoxycarbonyl)-1-phenyl-lH-1,2,4-triazol-3-yl]thio]methyl]-8-oxo-5-thia-1-azabicyclo-[4.2.0]oct-2-en-2-carboxylat-pivalat], the ED50 (Serratia marcescens) was greater than 25 mg/kg, the ED50 (Streptococcus pyogenes) was 2.4 mg/kg and the LD50 at 24 h (in vivo) was greater than 5000 mg/kg. For the same compound, the ED50 (Escherichia coli) was 1.8 mg/kg and the ED50 (Klebsiella pneumoniae) was greater than 12 mg/kg.
In the case of `CO/N=C(\C(=O)N[C@@H]1C(=O)N2C(C(=O)OCOC(=O)C(C)(C)C)=C(CSc3nnc(C(=O)OC)n3C)CS[C@H]12)c1csc(N)n1` [Produkt A, Methylen-(6R,7R)-7-[(Z)-2-(2-Amino-4-thiazolyl)-2-(methoxyimino)-acetamido]-3-[[[5-(methoxycarbonyl)-4-methyl-4H-1,2,4-triazol-3-yl]thio]methyl]-8-oxo-5-thia-l-azabicyclo-[4.2.0]oct-2-en-2-carboxylat-pivalat], the ED50 (Streptococcus pyogenes) was 1.8 mg/kg, the LD50 at 24 h (in vivo) was greater than 5000 mg/kg and the ED50 (Escherichia coli) was 0.11 mg/kg. The ED50 (Klebsiella pneumoniae) was 4.4 mg/kg.
`CCCCn1c(SCC2=C(C(=O)OCOC(=O)C(C)(C)C)N3C(=O)[C@@H](NC(=O)/C(=N\OC)c4csc(N)n4)[C@H]3SC2)nnc1C(=O)OC` [Produkt E, Methylen-(6R,7R)-[(Z)-(2-Amino-4-thiazolyl)-2-(methoxyimino)-acetamido]-3-[[[4-(n-butyl)-5-(methoxycarbonyl)-4H-1,2,4-triazol-3-yl]-thio]methyl]-8-oxo-5-thia-1-azabicyclo[4.2.0]-oct-2-en-2-carboxylat-pivalat] showed an ED50 (Serratia marcescens) of 37 mg/kg, an ED50 (Streptococcus pyogenes) of 3.5 mg/kg and an ED50 (Escherichia coli) of 1.1 mg/kg. For the same compound, the ED50 (Klebsiella pneumoniae) was greater than 12 mg/kg.
